From US10975434B2, “Growth differentiation factor 15 as biomarker for metformin” (Sanofi-Aventis Deutschland GmbH, priority 2015, dated 2021) come the findings set out here.

One experiment concerns GDF15 mRNA. Description: GDF15 messenger RNA expression in primary hepatocytes (BeadChip). The experiment is classed as cell-based, mouse. The conditions noted are these: primary C57Bl6 hepatocytes, metformin 0.5 mM versus vehicle; P=0.003. The protocol: To further understand the link between metformin and GDF15 levels, in vitro experiments were conducted using mouse hepatocytes. Primary hepatocytes from 4 different C57Bl6 wild-type male mice were isolated by collagenase digestion as previously described^14. Briefly, cells were plated on 12-well collagen-coated plates overnight in William's Media E containing 10% fetal bovine serum (FBS) and 1% antibiotic-antimycotic. […] Media was then snap frozen and stored at −80° C. for later analyses, and cells were harvested in cell lysis buffer for assessment of total protein or RNA.
GDF15 release into the media was measured using a commercially available ELISA kit (R&D Systems, Minneapolis, Minn.) and expressed per mg of hepatocyte protein. Total RNA was isolated using the Trizol plus RNA Purification kit (Ambion), concentrated with Speedvac (Thermo), and then quantified using Quant-IT RiboGreen (LifeTech). Total RNA was then reverse transcribed and amplified using the Illumina TotalPrep RNA Amplification Kit (LifeTech) according to the manufacturer's protocol. Samples were hybridized to the Illumina Mouse Ref-8 v2.0 complementary DNA BeadChip and scanned on the iScan System (Illumina). The raw sample probe profile and control probe profile were exported from GenomeStudio version 1.9.0 (Illumina). […]

Experiment [1] in a line: Outcomes during follow-up of biomarker study participants by baseline metformin use.
Experiment [2] deals with GDF15. Description: Multiplex serum biomarker analysis: GDF15 level versus metformin use and dose. Format: in vivo, human. The conditions noted are these: serum of people taking varying doses of metformin; FIG. 2.
For experiment [3], the system named is GDF15. Kind of experiment: Acute metformin injection, serum GDF15 in C57bl6 mice. The conditions noted are these: 250 mg/kg intraperitoneally, male C57bl6 mice, versus saline; P<0.05. Format: in vivo, mouse. The protocol:
(§1) For the acute experiments, 12 (i.e. 6 per group) 20-week old male C57bl6 mice (Jackson Laboratories) were fasted for 12 hours then allowed to feed ad libitum for 2 hours prior to injection with either metformin (250 mg/kg in 10 μl/g body weight saline) or vehicle (10 μl/g body weight saline) intraperitoneally. Blood was collected 90 minutes later by tail vein bleed, and serum was assayed for GDF15 levels using the Elisa described above (R&D Systems, Minneapolis, Minn.). […] Fed bloods were sampled by tail vein bleed from the animals at the end of the treatment period and serum GDF15 measured as above. Animal experiments were all approved by the McMaster University Animal Ethics Committee.

In experiment [4] the test system is GDF15. Kind of experiment: Chronic metformin in high-fat diet, serum GDF15 in obese C57bl6 mice. The experiment is classed as in vivo, mouse. The conditions noted are these: obese insulin-resistant mice, 2.5 g/kg metformin in 60% high-fat diet for 6 weeks, versus untreated controls; P<0.05. As for the experimental part: as §1
Setting [5] is: share of the 2317 participants on metformin at baseline.

For the compound `CN(C)C(=N)NC(=N)N` [Metformin, metformin], the “increase in GDF15 mRNA” value with GDF15 mRNA was determined as 1.6 fold. Besides, in experiment [1] (participants on metformin at baseline, N 2317, P 0.008 vs no metformin), the “Expanded Composite CV Outcome during follow-up, number of participants” value came out at 622. Also, the “Death during follow-up, number of participants” value in experiment [1] (participants on metformin at baseline, N 2317, P 0.01 vs no metformin) is given as 331. Also, in experiment [1] (participants on metformin at baseline, N 2317, median follow-up 6.2 years, P 0.007 vs no metformin), the “Composite CV Outcome during follow-up, number of participants” value is listed as 346. Moreover, in experiment [1] (setting [5]), the “Composite CV Outcome during follow-up, value in parentheses” value is reported as “(14.9)”; the “Death during follow-up, value in parentheses” value is “(14.3)”; the “Expanded Composite CV Outcome during follow-up, value in parentheses” value is “(26.8)”. The “mean concentration of GDF15 by metformin dose” value with GDF15 [2] is listed as “rose with progressively higher doses”. Besides, in the experiment with GDF15 [3], the “90 minute serum levels of GDF 15” value is recorded as “significantly increased”. In addition, the “serum GDF 15 levels after chronic treatment” value with GDF15 [4] is “significantly increased”.
